Several values for one entry are separate records, joined by “and”; a condition that tells them apart may be missing. Identical values can stand only once.
How the values were obtained:
liver = assay: Distribution of liposomes in mice: protein expression in the liver (live imaging); assay type: in vivo; conditions: at 6 h
Protocol: The LNP formulation containing […] Fluc-mRNA was injected intramuscularly into female BALB/C mice aged 4 to 6 weeks old and weighed 17 to 19 g, and the mice were intraperitoneally injected with fluorescent imaging substrate at specific time points after administration (6 h, 24 h, 48 h and 7 d), where the mice were free to move for 5 minutes, and then the average radiation intensity (corresponding to fluorescence expression intensity) of the protein expression of the mRNA carried by the LNP in the mice was detected by the IVIS Spectrum small animal live imaging device.
At 24 h, the LNP formulations prepared from all compounds had been metabolized in the liver and had no protein expression.

[1] = Particle size and polydispersity index (PDI) of lipid nanoparticles by dynamic light scattering; assay type: physicochemical; conditions: LNP formulation prepared from the cationic lipid, 25° C.
Protocol: The particle size and polydispersity index (PDI) were determined by dynamic light scattering using Malvern laser particle size analyzer.
10 μL of the liposome solution was weighed, diluted to 1 mL with RNase-free deionized water, and added to the sample pool. Each sample was measured in triplicate. The measurement conditions were: […] scattering angle, and 25° C.

female BALB/C mice = assay: Live imaging in mice: protein expression of Fluc-mRNA delivered by LNP formulations; assay type: in vivo; conditions: for average radiation intensity, times that of ALC-0315: comparator ALC-0315; for average radiation intensity, times that of HHMA: comparator HHMA; for average radiation intensity, times that of SM-102: comparator SM-102; for expression of mRNA in mice, times that of YK-302: comparator YK-302; for expression amount, times that of YK-321: comparator YK-321; for average radiation intensity, times that of compound 21: comparator compound 21; for average radiation intensity, times that of compound 23: comparator compound 23
How it was run: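 Female BALB/C mice (4-6 weeks, 17-19 g) received LNP-formulated Fluc-mRNA […] intramuscularly. At 6 h, 24 h, 48 h and 7 d, luciferase substrate given intraperitoneally, and after 5 min average radiance measured by IVIS whole-body imaging.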

293T cells [2] = assay: Fluorescent detection of Fluc-mRNA (cell transfection efficiency of LNP formulations); assay type: cell-based
How it was run: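 293T cells were seeded at 10,000/well and cultured overnight, then given LNP carrying […] Fluc-mRNA (cationic:neutral:structured:polymer-conjugated lipid 49:10:39.5:1.5 molar) for 24 h. Luminescence was developed with […] and imaged on IVIS.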

293T cells [3] = assay: Cell survival rate determination (CCK-8); assay type: cell-based; conditions: difference of survival rates
How it was run: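 293T cells plated at 10,000/well (96-well), adhered overnight, then exposed 24 h to Fluc-mRNA LNP (cationic:neutral:structured:PEG-lipid 49:10:39.5:1.5) or Lipofectamine 3000. Viability by CCK-8, 1 h incubation, absorbance at 450 nm.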

For CCCCCCC(CCCCCC)CCOC(=O)CCCCCCN(CCCCCCC(=O)OCCC(CCCCCC)CCCCCC)C[C@H](O)CN(CCO)CCO [YK-319], the “expression amount in the liver compared with ALC-0315 and SM-102” value (liver) was “reduced”, the “protein expression in the liver” value (liver; intramuscular injection) was “had protein expression in the liver” and the “PDI (%)” value [1] was 11.7%. The “Particle size (nm)” value [1] was 200 nm, the “average radiation intensity, times that of ALC-0315” value (female BALB/C mice; 6 h) was 9.53 times and the “average radiation intensity, times that of HHMA” value (female BALB/C mice; 6 h) was 12.64 times. For the same compound, the “average radiation intensity, times that of SM-102” value (female BALB/C mice; 6 h) was 11.74 times, the “expression of mRNA in mice, times that of YK-302” value (“expression of mRNA in mice” for short) (female BALB/C mice; 6 h) was 564.51 times and the “expression amount, times that of YK-321” value (female BALB/C mice; 6 h) was 15.96 times. The “average radiation intensity, times that of compound 21” value (female BALB/C mice; 6 h) was 13.49 times, the “average radiation intensity, times that of compound 23” value (female BALB/C mice; 6 h) was 13.96 times and the average radiation intensity (female BALB/C mice; 6 h after intramuscular injection) was 8230500. For the same compound, the “average radiation intensity, times that of ALC-0315” value (female BALB/C mice; 24 h) was 12.78 times, the “average radiation intensity, times that of HHMA” value (female BALB/C mice; 24 h) was 20.29 times and the “average radiation intensity, times that of SM-102” value (female BALB/C mice; 24 h) was 20.20 times. The “expression of mRNA in mice” value (female BALB/C mice; 24 h) was 615.26 times, the “expression amount, times that of YK-321” value (female BALB/C mice; 24 h) was 24.04 times and the “average radiation intensity, times that of compound 21” value (female BALB/C mice; 24 h) was 22.16 times. The “average radiation intensity, times that of compound 23” value (female BALB/C mice; 24 h) was 23.28 times, the average radiation intensity (female BALB/C mice; 24 h after intramuscular injection) was 2433960 and the “average radiation intensity, times that of ALC-0315” value (female BALB/C mice; 48 h) was 22.30 times. For the same compound, the “average radiation intensity, times that of HHMA” value (female BALB/C mice; 48 h) was 27.27 times, the “average radiation intensity, times that of SM-102” value (female BALB/C mice; 48 h) was 27.27 times and the “expression of mRNA in mice” value (female BALB/C mice; 48 h) was 866.03 times. For the same compound, the “expression amount, times that of YK-321” value (female BALB/C mice; 48 h) was 24.28 times, the “average radiation intensity, times that of compound 21” value (female BALB/C mice; 48 h) was 28.65 times and the “average radiation intensity, times that of compound 23” value (female BALB/C mice; 48 h) was 26.80 times. For the same compound, the average radiation intensity (female BALB/C mice; 48 h after intramuscular injection) was 887680, the “average radiation intensity, times that of ALC-0315” value (female BALB/C mice; 7 d) was 14.88 times and the “average radiation intensity, times that of HHMA” value (female BALB/C mice; 7 d) was 17.86 times. The “average radiation intensity, times that of SM-102” value (female BALB/C mice; 7 d) was 15.84 times, the “expression of mRNA in mice” value (female BALB/C mice; 7 d) was 273.07 times and the “expression amount, times that of YK-321” value (female BALB/C mice; 7 d) was 15.92 times. The “average radiation intensity, times that of compound 21” value (female BALB/C mice; 7 d) was 16.27 times, the “average radiation intensity, times that of compound 23” value (female BALB/C mice; 7 d) was 16.80 times and the average radiation intensity (female BALB/C mice; 7 d after intramuscular injection) was 104860. For the same compound, the “Relative light unit (RLU)” value (293T cells [2]; LNP formulation of Fluc-mRNA, 96-well plate, 24 hours) was 24467760 RLU, the “Multiples (YK-305)” value (293T cells [2]; RLU of YK-305 / RLU of the lipid of the line) was 1.12 and the “Multiples (YK-310)” value (293T cells [2]; RLU of YK-310 / RLU of the lipid of the line) was 1.05. For the same compound, the “Multiples (YK-312)” value (293T cells [2]; RLU of YK-312 / RLU of the lipid of the line) was 0.82, the “Multiples (YK-318)” value (293T cells [2]; RLU of YK-318 / RLU of the lipid of the line, Tables 5, 7, 11) was 0.46 and the “Multiples (YK-319)” value (293T cells [2]; RLU of YK-319 / RLU of the lipid of the line, Tables 5, 7, 11) was 1.00. For the same compound, the “Ratio relative to SM-102” value (293T cells [2]; RLU of the lipid / RLU of SM-102, times that of SM-102) was 15.25, the “cell transfection efficiency, times that of ALC-0315” value (293T cells [2]; comparator ALC-0315) was 12.03 times and the “cell transfection efficiency, times that of HHMA” value (293T cells [2]; comparator HHMA) was 12.20 times. The “cell transfection efficiency, times that of Lipofectamine 3000” value (293T cells [2]; comparator Lipofectamine 3000) was 20.63 times, the “cell transfection efficiency, times that of YK-009” value (293T cells [2]; comparator YK-009) was 4.78 times and the “cell transfection efficiency, times that of YK-301” value (293T cells [2]; comparator YK-301) was 29.04 times. For the same compound, the “cell transfection efficiency, times that of YK-302” value (293T cells [2]; comparator YK-302) was 880.83 times, the “cell transfection efficiency, times that of YK-303” value (293T cells [2]; comparator YK-303) was 39.07 times and the “cell transfection efficiency, times that of YK-304” value (293T cells [2]; comparator YK-304) was ~1100 times and 1182.82 times. For the same compound, the “cell transfection efficiency, times that of YK-306” value (293T cells [2]; comparator YK-306) was 11.14 times, the “cell transfection efficiency, times that of YK-307” value (293T cells [2]; comparator YK-307) was 5.37 times and the “cell transfection efficiency, times that of YK-308” value (293T cells [2]; comparator YK-308) was 2.22 times. The “cell transfection efficiency, times that of YK-309” value (293T cells [2]; comparator YK-309) was ~190 times and 195.16 times, the “cell transfection efficiency, times that of YK-311” value (293T cells [2]; comparator YK-311) was 12.46 times and the “cell transfection efficiency, times that of YK-313” value (293T cells [2]; comparator YK-313) was 28.24 times. The “cell transfection efficiency, times that of YK-314” value (293T cells [2]; comparator YK-314) was 44.70 times, the “cell transfection efficiency, times that of YK-315” value (293T cells [2]; comparator YK-315) was 15.42 times and the “cell transfection efficiency, times that of YK-316” value (293T cells [2]; comparator YK-316) was 5.09 times. The “cell transfection efficiency, times that of YK-317” value (293T cells [2]; comparator YK-317) was 6.79 times, the “cell transfection efficiency, times that of YK-320” value (293T cells [2]; comparator YK-320) was 9.05 times and the “cell transfection efficiency, times that of YK-321” value (293T cells [2]; comparator YK-321) was 17.43 times. The “cell transfection efficiency, times that of compound 21” value (293T cells [2]; comparator compound 21) was 17.08 times, the “cell transfection efficiency, times that of compound 23” value (293T cells [2]; comparator compound 23) was 18.04 times and the “cell survival rate higher than ALC-0315” value (293T cells [3]; comparator ALC-0315) was 24.18%. The “cell survival rate higher than HHMA” value (293T cells [3]; comparator HHMA) was 8.74%, the “cell survival rate higher than Lipofectamine 3000” value (293T cells [3]; comparator Lipofectamine 3000) was 50.20% and the “cell survival rate higher than SM-102” value (293T cells [3]; comparator SM-102) was 5.76%. For the same compound, the “cell survival rate higher than YK-301” value (293T cells [3]; comparator YK-301) was 22.25%, the “cell survival rate higher than YK-302” value (293T cells [3]; comparator YK-302) was 58.78% and the “cell survival rate higher than YK-303” value (293T cells [3]; comparator YK-303) was 11.89%. The “cell survival rate higher than YK-304” value (293T cells [3]; comparator YK-304) was 41.05%, the “cell survival rate higher than YK-306” value (293T cells [3]; comparator YK-306) was 33.02% and the “cell survival rate higher than YK-307” value (293T cells [3]; comparator YK-307) was 14.07%. For the same compound, the “cell survival rate higher than YK-308” value (293T cells [3]; comparator YK-308) was 4.22%, the “cell survival rate higher than YK-309” value (293T cells [3]; comparator YK-309) was 43.60% and the “cell survival rate higher than YK-311” value (293T cells [3]; comparator YK-311) was 5.15%. The “cell survival rate higher than YK-313” value (293T cells [3]; comparator YK-313) was 6.28%, the “cell survival rate higher than YK-314” value (293T cells [3]; comparator YK-314) was 7.33% and the “cell survival rate higher than YK-315” value (293T cells [3]; comparator YK-315) was 3.93%. For the same compound, the “cell survival rate higher than YK-316” value (293T cells [3]; comparator YK-316) was 4.68%, the “cell survival rate higher than YK-317” value (293T cells [3]; comparator YK-317) was 16.03% and the “cell survival rate higher than YK-320” value (293T cells [3]; comparator YK-320) was 4.14%. For the same compound, the “cell survival rate higher than YK-321” value (293T cells [3]; comparator YK-321) was 2.87%, the “cell survival rate higher than compound 21” value (293T cells [3]; comparator compound 21) was 5.00% and the “cell survival rate higher than compound 23” value (293T cells [3]; comparator compound 23) was 3.71%.

— patent US20260007613A1, “LONG-ACTING LOW-TOXICITY NOVEL CATIONIC LIPID COMPOUNDS AND COMPOSITION THEREOF” (BEIJING YOUCAREKECHUANG PHARMACEUTICAL TECHNOLOGY CO., LTD., priority 2023, published 2026)
